Results from patent EP1170365A1, “Member of the ion channel family of polypeptides; vanilrep4” (SMITHKLINE BEECHAM PLC, priority 2000, dated 2002).

What was measured:
Assay type in all cases: cell-based
[1] = system: cells transfected with empty vector; experiment: FLIPR intracellular calcium assay (Fluo-3) in HEK293 cells transfected with empty vector; conditions: result in words
hVR1 = target: T1, hVR1 (Homo sapiens, UniProt Q8NER1); experiment: cell-based; conditions: for activity at VR1: result in words
T1 construct: expressed in transfected cells; host or cells: HEK293 (transient)

wild type HEK293 cells = experiment: FLIPR intracellular calcium assay (Fluo-3) in wild type HEK293 cells; conditions: result in words
hVR4 = target: T2, hVR4 (Homo sapiens, UniProt Q9HBA0); experiment: FLIPR intracellular calcium assay (Fluo-3) in HEK293 cells transiently expressing hVR4; conditions: for effect on intracellular calcium: HEK293-hVR4 cells, result in words
T2 construct: expressed in transfected cells; host or cells: HEK293 (transient)
Procedure: HEK293 cells transiently expressing hVR1 or hVR4 were seeded into FLIPR96 plates at 25,000cells/well and cultured overnight. The cells were then loaded in medium containing 4microM Fluo-3 for 2hrs, at room temperature, in the dark. The cell plates were then washed 4x with Tyrode containing 1.5mM calcium and 0.2% BSA. Agonist and antagonist plates were prepared in the same buffer. Cells were preincubated with either antagonist or buffer at room temperature for 30 mins. Agonists additions and calcium measurements were made in the FLIPR (Smart et al., (2000) Br J. Pharmacol. 129, 227-230).

T2 sequence (Q9HBA0 whole entry): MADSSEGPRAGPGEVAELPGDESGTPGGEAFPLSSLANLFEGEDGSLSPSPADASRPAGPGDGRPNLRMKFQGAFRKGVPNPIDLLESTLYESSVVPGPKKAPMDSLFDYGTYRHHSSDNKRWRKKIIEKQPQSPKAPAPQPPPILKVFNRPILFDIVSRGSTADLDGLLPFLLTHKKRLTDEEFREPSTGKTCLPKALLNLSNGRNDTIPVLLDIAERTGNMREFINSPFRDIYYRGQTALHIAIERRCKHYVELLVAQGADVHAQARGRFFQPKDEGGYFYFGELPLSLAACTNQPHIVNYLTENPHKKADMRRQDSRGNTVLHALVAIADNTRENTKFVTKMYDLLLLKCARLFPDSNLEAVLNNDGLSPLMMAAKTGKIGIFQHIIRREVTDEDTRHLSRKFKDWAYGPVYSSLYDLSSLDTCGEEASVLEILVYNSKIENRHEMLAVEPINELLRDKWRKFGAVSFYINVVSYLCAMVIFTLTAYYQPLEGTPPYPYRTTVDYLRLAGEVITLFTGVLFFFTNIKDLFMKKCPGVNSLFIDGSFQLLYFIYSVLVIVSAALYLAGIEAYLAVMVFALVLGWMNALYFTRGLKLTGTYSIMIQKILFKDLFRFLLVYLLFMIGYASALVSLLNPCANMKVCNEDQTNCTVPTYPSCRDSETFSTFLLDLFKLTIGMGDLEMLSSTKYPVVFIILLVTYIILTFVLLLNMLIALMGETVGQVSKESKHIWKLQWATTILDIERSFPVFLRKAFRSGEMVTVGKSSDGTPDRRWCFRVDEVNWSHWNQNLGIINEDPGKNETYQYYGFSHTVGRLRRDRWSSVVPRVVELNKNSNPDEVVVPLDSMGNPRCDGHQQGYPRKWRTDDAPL
T1 sequence (Q8NER1 whole entry): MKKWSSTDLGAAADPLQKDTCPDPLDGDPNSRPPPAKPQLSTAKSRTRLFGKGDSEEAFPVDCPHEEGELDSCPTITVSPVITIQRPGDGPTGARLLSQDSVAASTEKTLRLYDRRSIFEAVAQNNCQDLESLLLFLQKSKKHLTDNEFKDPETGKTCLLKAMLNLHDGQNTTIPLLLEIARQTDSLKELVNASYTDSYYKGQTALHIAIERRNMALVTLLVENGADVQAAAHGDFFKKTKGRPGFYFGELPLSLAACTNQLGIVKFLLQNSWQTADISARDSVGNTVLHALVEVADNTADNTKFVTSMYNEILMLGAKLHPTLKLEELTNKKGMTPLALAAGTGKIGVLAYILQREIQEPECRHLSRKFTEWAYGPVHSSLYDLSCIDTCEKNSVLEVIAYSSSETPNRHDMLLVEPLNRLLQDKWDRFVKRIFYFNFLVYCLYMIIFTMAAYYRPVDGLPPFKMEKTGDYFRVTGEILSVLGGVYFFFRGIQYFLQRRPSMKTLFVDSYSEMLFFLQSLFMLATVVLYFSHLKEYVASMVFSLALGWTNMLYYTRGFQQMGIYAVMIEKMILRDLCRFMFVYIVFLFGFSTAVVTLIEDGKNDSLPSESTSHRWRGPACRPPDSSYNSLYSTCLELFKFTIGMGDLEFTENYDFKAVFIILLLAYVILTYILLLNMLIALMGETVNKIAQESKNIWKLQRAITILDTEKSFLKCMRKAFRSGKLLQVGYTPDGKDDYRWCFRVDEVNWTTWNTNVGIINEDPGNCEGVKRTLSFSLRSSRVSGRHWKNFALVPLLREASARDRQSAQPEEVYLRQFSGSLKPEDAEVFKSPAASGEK

CCCCCCCCCCCCCC(=O)O[C@@H]1[C@@H](C)[C@@]2(O)[C@@H](C=C(CO)C[C@]3(O)C(=O)C(C)=C[C@@H]23)[C@@H]2C(C)(C)[C@]12OC(C)=O [PMA, phorbol 12-myristate 13-acetate]
effect on intracellular calcium [1]: without effect
EC50 (hVR1): 13.8 nM
Emax (hVR1; VR1, compared to capsaicin and RTX): 0.46
activity at VR1 (hVR1; VR1): partial agonist
effect on intracellular calcium (wild type HEK293 cells): without effect
EC50 (hVR4): 229 nM
effect on intracellular calcium (hVR4): increased intracellular calcium

CCCCCCCCCC(=O)O[C@@H]1[C@@H](C)[C@@]2(O)[C@@H](C=C(CO)C[C@@]3(O)C(=O)C(C)=C[C@@H]23)[C@@H]2C(C)(C)[C@]12OC(=O)CCCCCCCCC [4αPDD, 4α-phorbol-12,13-didecanoate]
effect on intracellular calcium [1]: without effect
activity at VR1 (hVR1; VR1): inactive
effect on intracellular calcium (wild type HEK293 cells): without effect
effect on intracellular calcium (hVR4): increased intracellular calcium
pEC50 (hVR4; HEK293 cells expressing hVR4, mean±s.e.mean, n=3-5, IA= inactive): 5.73±0.06
selectivity (hVR4; VR4 versus VR1, conclusion in words): VR4 selective agonist

C=C(C)C12CC(C)C34OC(Cc5ccccc5)(OC1C3C=C(COC(=O)Cc1ccc(O)c(OC)c1)CC1(O)C(=O)C(C)=CC14)O2 (centres unmarked) [RTX]
EC50 (hVR1): 1.17 nM
